# Measurements: patent publication US20120277436A1, “PHENYLHYDRAZONE DERIVATIVES AND THEIR USE AS PHARMACEUTICALS” (priority 2009, published 2012)
# Key:
# [1] = tested on: TA100, TA98, TA 102, TA 1537 and TA 1535; assay: AMES test, overall conclusion over all strains; type: cell-based, Salmonella typhimuriu; conditions: absence and presence of S-9
# Description: Gene mutation can be evaluated in vitro, using amino-acid requiring strains of Salmonella typhimuriu. Different protocols for this test have been published (Ames B. N. et al Mutation Res. 1975, 31, 347-364, and Gatehouse D. et al Mutation Res. 1994, 312, 217-233). The principle of this bacterial reverse mutation test is that it detects mutations which revert mutations present in the test strains and restore the functional capability of the bacteria to synthesise an essential amino acid. The revertant bacteria are detected by their ability to grow in the absence of the amino acid required by the parent test strain.
# In the present example, the guidelines OECD TG 471 (i.e. AMES Test) was used to detect gene mutation at different doses in the TA100, TA98, TA 102, TA 1537 and TA 1535.
# Treatments covering a broad range of concentrations, separated by narrow intervals, were performed both in the absence and presence of metabolic activation (S-9) from Aroclor 1254 induced animals. The compound was formulated in anhydrous analytical grade dimethylsulphoxide (DMSO) and the highest concentration used in was determined following a preliminary cytotoxicity Range-Finder Experiment.
# ZDF rats = assay: Treatment of prediabetic ZDF rats by oral administration (plasma triglycerides); type: in vivo, rat
# Protocol: (§1) Assay of serum triglycerides may be performed enzymatically using a commercially available kit. In summary, the triglycerides are treated with a lipase in order to generate glycerol and fatty acids. In the presence of ATP, the glycerol is transformed by […] into glycerol-3-phosphate. The glycerol-3-phosphate is subsequently transformed into dihydroxyacetone in generating oxygenated water (H202) which may be detected by formation of quinoneimine in the presence of parachlorophenol, amino-4-antipyrin and peroxydase. The intensity of the quinoneimine coloration is subsequently measured at 505 nm. This coloration is proportional to the quantity of triglycerides present in the sample.
# Following the same experiments as in example 2.2, ZDF rats were used to evaluate the effect of the compound on the glycaemia and the plasma level of triglycerides using the experimental protocol described in example 2.2.
# The compound was dissolved in PEG 300 and orally administrated to a series of 8 rats for 2 weeks.
# [2] = tested on: Male obese Zucker diabetic fatty (ZDF fa/fa) rats; assay: Treatment of prediabetic ZDF rats by IP injection (plasma glucose, serum triglycerides); type: in vivo, rat; conditions: IP injection 10 mg/kg once daily for three weeks, PEG 300
# Protocol: Male obese Zucker diabetic fatty (ZDF fa/fa) rats were used to test the in vivo activity of compound 1. This animal model develops hyperglycemia and insulin resistance.
# In this example, six-week-old male prediabetic ZDF rats (Charles River) are provided rat chow and water ad libidum. The obese rats are divided into a control and a treated groups (n=6 per subgroup).
# The compound 1 is dissolved in PEG 300 and administrated by IP injection at a dose of 10 mg/kg once daily for a period of three weeks.
# Glucose plasma level can be measured by the commercially available kit using the glucose oxydase method (Sigma Chemical Co.).
# as §1
compound,measurement,setting,value
"COc1cc(O)c(/C=N/NC(=O)c2ccc3nccn3c2)c(OC)c1 [Compound 1, [1-(2-hydroxy-4,6-dimethoxy-phenyl)-methylidene]-imidazo[1,2-a]pyridine-6-carbohydrazide]",mutagenic activity in AMES test,[1],does not exhibit mutagenic activity
same,circulating triglycerides,"ZDF rats; administered orally, 2 weeks",significantly reduce
same,Reduction of plasma triglycerides,"ZDF rats; orally administrated for 2 weeks, versus untreated rats",37.4%
same,"Triglycerides, plasma level","ZDF rats; orally administrated in PEG 300 for 2 weeks, ZDF rats (n = 8)",1.02 ± 0.1 mM
same,circulating triglycerides,[2],significantly reduce
same,plasma level of glucose,[2],significantly reduces
